Data: ChEMBL document CHEMBL1201862, “PubChem BioAssay data set” (2004)
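Results reflect a 48-hour exposure of cells in 96-well plates to compound at five concentrations. GI50: concentration for 50% inhibition of growth.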 Activity calls are given as the source filed them. No stated cut-off is given here; in the data, active = GI50 up to about 1.1 µM and inactive = higher.

Experiments:
Test in all cases: NCI tumour cell line growth inhibition, 48 h
SF-268 = system: SF-268
OVCAR-8 = system: OVCAR-8
UACC-257 = system: UACC-257
HCT-15 = system: HCT-15
MDA-N = system: MDA-N
CCRF-CEM = system: CCRF-CEM
LOX IMVI = system: LOX IMVI
SF-539 = system: SF-539
HCC 2998 = system: HCC 2998
Malme-3M = system: Malme-3M
CAKI-1 = system: CAKI-1
SN12C = system: SN12C
OVCAR-3 = system: OVCAR-3
UACC-62 = system: UACC-62
TK-10 = system: TK-10
SK-MEL-2 = system: SK-MEL-2
HL-60 = system: HL-60
A498 = system: A498
NCI-H522 = system: NCI-H522
SR = system: SR

Row | Structure (SMILES) | GI50 (SF-268) | GI50 (OVCAR-8) | GI50 (UACC-257) | GI50 (HCT-15) [µM] | GI50 (MDA-N) | GI50 (CCRF-CEM) | GI50 (LOX IMVI) | GI50 (SF-539) | GI50 (HCC 2998) | GI50 (Malme-3M) | GI50 (CAKI-1) | GI50 (SN12C) | GI50 (OVCAR-3) | GI50 (UACC-62) | GI50 (TK-10) | GI50 (SK-MEL-2) | GI50 (HL-60) | GI50 (A498) | GI50 (NCI-H522) | GI50 (SR)
1 | Clc1ccc(-c2cn3c(nc4ccccc43)c(-c3ccccc3)n2)cc1 | 48 µM (inactive) | 12.1 µM (inactive) | 61.2 µM (inactive) | > 100 | 27.2 µM (inactive) | > 70.8 µM (inactive) | 32 µM (inactive) | 22.3 µM (inactive) | 44.9 µM (inactive) | 23.1 µM (inactive) | 16.3 µM (inactive) | 36.5 µM (inactive) | 27.7 µM (inactive) | 11.4 µM (inactive) | 22 µM (inactive) | 14.1 µM (inactive) | > 100 µM (inactive) | 23.9 µM (inactive) | 13.8 µM (inactive) | > 82 µM (inactive)
2 | CCN(CC)CCN1c2ccccc2Sc2ccc3ccccc3c21 | 14.4 µM (inactive) | 12.6 µM (inactive) | 7.69 µM (inactive) | 6.9 | 12.3 µM (inactive) | 2.92 µM (inactive) | 7.52 µM (inactive) | 13.6 µM (inactive) | 2.23 µM (inactive) | 15.4 µM (inactive) | 8.89 µM (inactive) | 11.7 µM (inactive) | 11.6 µM (inactive) | 8.57 µM (inactive) | 1.67 µM (inactive) | 14.3 µM (inactive) | 3.54 µM (inactive) | 11.4 µM (inactive) | 11.8 µM (inactive) | 4.94 µM (inactive)
3 | O=C(NCCCCCCCN1CCCCCCC1)C(C1CCCCC1)C1CCCCC1 | 15.8 µM (inactive) | 12.3 µM (inactive) | 2.09 µM (inactive) | 4.07 | 7.93 µM (inactive) | 6.97 µM (inactive) | 12 µM (inactive) | 11.2 µM (inactive) | 2.76 µM (inactive) | 3.34 µM (inactive) | 7.14 µM (inactive) | 13.1 µM (inactive) | 6.07 µM (inactive) | 4.76 µM (inactive) | 12.9 µM (inactive) | 9.08 µM (inactive) | 5.14 µM (inactive) | 5.83 µM (inactive) | 14 µM (inactive) | 2.34 µM (inactive)
4 | CC(C)(C)C1=CC(=C(c2ccc(-c3c4nc(c(-c5ccc(C(=C6C=C(C(C)(C)C)C(=O)C(C(C)(C)C)=C6)c6cc(C(C)(C)C)c(O)c(C(C)(C)C)c6)cc5)c5ccc([nH]5)c(-c5ccc(C(=C6C=C(C(C)(C)C)C(=O)C(C(C)(C)C)=C6)c6cc(C(C)(C)C)c(O)c(C(C)(C)C)c6)cc5)c5nc(c(-c6ccc(C(=C7C=C(C(C)(C)C)C(=O)C(C(C)(C)C)=C7)c7cc(C(C)(C)C)c(O)c(C(C)(C)C)c7)cc6)c6ccc3[nH]6)C=C5)C=C4)cc2)c2cc(C(C)(C)C)c(O)c(C(C)(C)C)c2)C=C(C(C)(C)C)C1=O | > 100 µM (inactive) | > 100 µM (inactive) | > 100 µM (inactive) | > 100 | > 100 µM (inactive) | > 100 µM (inactive) | > 100 µM (inactive) | > 100 µM (inactive) | > 100 µM (inactive) | > 100 µM (inactive) | > 100 µM (inactive) | > 100 µM (inactive) | > 100 µM (inactive) | > 100 µM (inactive) | > 100 µM (inactive) | > 100 µM (inactive) | > 100 µM (inactive) | > 100 µM (inactive) | > 100 µM (inactive) | > 100 µM (inactive)
5 | O=C(O)CCC(NC(=O)c1ccc(Oc2nc3ccccc3nc2-c2ccccc2)cc1)C(=O)O (configuration not stated) | > 100 µM (inactive) | > 100 µM (inactive) | > 100 µM (inactive) | > 100 | > 100 µM (inactive) | > 100 µM (inactive) | > 100 µM (inactive) | > 100 µM (inactive) | > 100 µM (inactive) | > 100 µM (inactive) | > 100 µM (inactive) | > 100 µM (inactive) | > 100 µM (inactive) | > 100 µM (inactive) | > 100 µM (inactive) | > 100 µM (inactive) | > 100 µM (inactive) | > 100 µM (inactive) | > 100 µM (inactive) | > 100 µM (inactive)
6 | Nc1ccc(Oc2ccc(C34CC5CC(C3)CC(c3ccc(Oc6ccc(N)cc6)cc3)(C5)C4)cc2)cc1 | 9.66 µM (inactive) | 5.26 µM (inactive) | 9.86 µM (inactive) | 10.8 | 8.71 µM (inactive) | > 22 µM (inactive) | 6.25 µM (inactive) | 13.7 µM (inactive) | 4.9 µM (inactive) | 11.6 µM (inactive) | 13.5 µM (inactive) | 12.5 µM (inactive) | 7.66 µM (inactive) | 10.4 µM (inactive) | 10.3 µM (inactive) | 13.1 µM (inactive) | > 41.3 µM (inactive) | 12 µM (inactive) | 11.9 µM (inactive) | 3.56 µM (inactive)
7 | NC(=O)NNCc1c(-c2ccccc2)no[n+]1[O-] | > 100 µM (inactive) | > 100 µM (inactive) | > 100 µM (inactive) | > 100 | > 100 µM (inactive) | > 100 µM (inactive) | > 100 µM (inactive) | > 100 µM (inactive) | > 100 µM (inactive) | > 100 µM (inactive) | > 100 µM (inactive) | > 100 µM (inactive) | > 100 µM (inactive) | > 100 µM (inactive) | > 100 µM (inactive) | > 100 µM (inactive) | > 100 µM (inactive) | > 100 µM (inactive) | > 100 µM (inactive) | > 100 µM (inactive)
8 | C=CCNC1=C2C[C@@H](C)C[C@@H](OC)[C@H](OC(=O)CCN)[C@H](C)/C=C(\C)[C@@H](OC(N)=O)[C@H](OC)/C=C\C=C(/C)C(=O)NC(=CC1=O)C2=O | 9.57 µM (inactive) | 4.18 µM (inactive) | 2.42 µM (inactive) | 9.57 | 1.21 µM (inactive) |  | 3.03 µM (inactive) |  | 1.06 µM (active) | 2.67 µM (inactive) | 12.2 µM (inactive) | 2.34 µM (inactive) | 2.45 µM (inactive) | 2.9 µM (inactive) | 2.17 µM (inactive) | 1.9 µM (inactive) | 3.83 µM (inactive) | 3.61 µM (inactive) | 5.3 µM (inactive) | 0.938 µM (active)
9 | COC(=O)/C=C(/C=C1/C(C#N)=C(N)N(c2ccc(Cl)cc2)C1(C)/C(=C\C(=O)OC)C(=O)OC)C(=O)OC (configuration not stated) | 19.5 µM (inactive) | 17.3 µM (inactive) | 18.9 µM (inactive) | 18.5 | 16.2 µM (inactive) | 16.3 µM (inactive) | 17.1 µM (inactive) | 15.4 µM (inactive) | 20 µM (inactive) | 25.1 µM (inactive) | 22.8 µM (inactive) | 21.6 µM (inactive) | 18.4 µM (inactive) | 12.9 µM (inactive) | 29.4 µM (inactive) | 32.1 µM (inactive) | 13.7 µM (inactive) | 44.8 µM (inactive) | 5.69 µM (inactive) | 28.5 µM (inactive)
10 | CCCC(=O)Nc1cc(/C=C/C(=O)N2C[C@H]3C[C@@]34C2=CC(=O)c2[nH]cc(C)c24)n(C)c1 | < 0.0025 µM (active) | < 0.0025 µM (active) | < 0.0025 µM (active) | 0.0103 | < 0.0025 µM (active) | < 0.0025 µM (active) | < 0.0025 µM (active) | < 0.0025 µM (active) | < 0.0025 µM (active) | < 0.0025 µM (active) | < 0.0025 µM (active) | < 0.0025 µM (active) | < 0.0025 µM (active) | < 0.0025 µM (active) | < 0.0025 µM (active) | < 0.0025 µM (active) | < 0.0025 µM (active) | < 0.0025 µM (active) | < 0.0025 µM (active) | < 0.0025 µM (active)
11 | CC(C)(C)OC(=O)n1c2ccccc2c2c(=O)nc(N3CCCCC3)sc21 | 58.9 µM (inactive) | > 100 µM (inactive) | > 100 µM (inactive) | > 100 | > 100 µM (inactive) | > 100 µM (inactive) | > 100 µM (inactive) | > 100 µM (inactive) |  | > 100 µM (inactive) | > 100 µM (inactive) | > 100 µM (inactive) | > 100 µM (inactive) | > 100 µM (inactive) | > 100 µM (inactive) | > 100 µM (inactive) | > 100 µM (inactive) | > 100 µM (inactive) | > 100 µM (inactive) | 90.4 µM (inactive)
12 | COc1cc2c(c(OC)c1OC)-c1ccc(SC)c(=O)cc1[C@@H](NC(=O)C(F)(F)F)CC2 | < 0.01 µM (active) | < 0.01 µM (active) | < 0.01 µM (active) | < 0.01 | < 0.01 µM (active) | < 0.01 µM (active) | < 0.01 µM (active) | < 0.01 µM (active) | < 0.01 µM (active) | < 0.01 µM (active) | < 0.0139 µM (active) | < 0.01 µM (active) | < 0.0158 µM (active) | < 0.0102 µM (active) | 8.63 µM (inactive) | < 0.01 µM (active) | < 0.01 µM (active) | < 0.01 µM (active) | < 0.01 µM (active) | < 0.01 µM (active)
13 | COc1cc2c(cc1C)NC(=O)/C2=C/c1c(Cl)n(-c2ccccc2)c2ccccc12 | 20.6 µM (inactive) | 23.4 µM (inactive) | 20.5 µM (inactive) | 11.8 | 15.1 µM (inactive) | 4.42 µM (inactive) | 7.33 µM (inactive) | 11.1 µM (inactive) | 8.24 µM (inactive) | 18.4 µM (inactive) | 21 µM (inactive) | 11.2 µM (inactive) | 7.91 µM (inactive) | 19.3 µM (inactive) | 28.9 µM (inactive) | 11.4 µM (inactive) | 3.38 µM (inactive) | 32.8 µM (inactive) | 11.4 µM (inactive) | 6.12 µM (inactive)
